We go through 22 compounds from PubChem BioAssay AID192 (DTP/NCI, 2004).

Where “and” joins values, the source holds several entries; their conditions need not be identical. Equal entries are not always repeated. Inconclusive results and toxic doses are left out.

In the test the test system is BDF1 mice, B16 melanoma ip, median survival T/C. The test is described as follows: NCI In Vivo Anticancer Drug Screen. Data for tumor model B16 Melanoma (intraperitoneal) in B6D2F1 (BDF1) mice. As to conditions: endpoint: median survival time, higher = longer survival. Put shortly: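 Values are ratios of treated (T) to vehicle-control (C) measurements of survival or tumor size in tumor-bearing mice.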

The mark [1] stands for this setting: dose: 100.0 mg/kg/injection, schedule: Q01DX009 (ip), vehicle: Klucel (hydroxypropylcellulose) (HPC).
Where [2] appears, read: dose: 200.0 mg/kg/injection, schedule: Q01DX009 (ip), vehicle: Klucel (hydroxypropylcellulose) (HPC).
Where [3] appears, read: dose: 400.0 mg/kg/injection, schedule: Q01DX009 (ip), vehicle: Klucel (hydroxypropylcellulose) (HPC).
The mark [4] stands for this setting: dose: 12.5 mg/kg/injection, schedule: Q01DX009 (ip), vehicle: saline with Tween-80.
Where [5] appears, read: dose: 25.0 mg/kg/injection, schedule: Q01DX009 (ip), vehicle: saline with Tween-80.
The mark [6] stands for this setting: dose: 50.0 mg/kg/injection, schedule: Q01DX009 (ip), vehicle: saline with Tween-80.
Setting [7] is: dose: 100.0 mg/kg/injection, schedule: Q01DX009 (ip), vehicle: saline with Tween-80.
Where [8] appears, read: dose: 200.0 mg/kg/injection, schedule: Q01DX009 (ip), vehicle: saline with Tween-80.
[9] abbreviates: dose: 400.0 mg/kg/injection, schedule: Q01DX009 (ip), vehicle: saline with Tween-80.
The mark [10] stands for this setting: dose: 25.0 mg/kg/injection, schedule: Q01DX009 (ip), vehicle: saline.
Where [11] appears, read: dose: 50.0 mg/kg/injection, schedule: Q01DX009 (ip), vehicle: saline.
Setting [12] is: dose: 100.0 mg/kg/injection, schedule: Q01DX009 (ip), vehicle: saline.

Take `CCCCCCCCCCCC[S+](C)C`: the T/C by setting is: (dose: 2.0 mg/kg/injection, schedule: Q01DX009 (ip), vehicle: saline sonified) 89 % of control; (dose: 4.0 mg/kg/injection, schedule: Q01DX009 (ip), vehicle: saline sonified) 102 % of control; (dose: 5.0 mg/kg/injection, schedule: Q01DX009 (ip), vehicle: Klucel (hydroxypropylcellulose) (HPC)) 97 % of control; (dose: 8.0 mg/kg/injection, schedule: Q01DX009 (ip), vehicle: saline sonified) 107 % of control; (dose: 10.0 mg/kg/injection, schedule: Q01DX009 (ip), vehicle: Klucel (hydroxypropylcellulose) (HPC)) 100 % of control; (dose: 16.0 mg/kg/injection, schedule: Q01DX009 (ip), vehicle: saline sonified) 100 % of control. The T/C (dose: 20.0 mg/kg/injection, schedule: Q01DX009 (ip), vehicle: Klucel (hydroxypropylcellulose) (HPC)) was 88 % of control.

On to `COc1ccc(COC=O)cc1`, for which the T/C reads like this: under setting [1], 100 % of control; under setting [2], 109 % of control; under setting [3], 106 % of control.

Regarding `N#CCCSC(=S)C1CCCC1=N` (stereo not drawn), the T/C by setting is: under setting [4], 112 % of control; under setting [5], 106 % of control; under setting [6], 103 % of control; under setting [7], 103 % of control; under setting [8], 108 % of control.

Take `Nc1nc(N=Nc2ccc(O)cc2)cc(=O)[nH]1`: the T/C is 109 % of control (dose: 100.0 mg/kg/injection, schedule: Q01DX009 (ip), vehicle: other); 105 % of control (dose: 200.0 mg/kg/injection, schedule: Q01DX009 (ip), vehicle: other); 87 % of control (dose: 400.0 mg/kg/injection, schedule: Q01DX009 (ip), vehicle: other).

Take `c1ccc([C@H]2CN3CCSC3=N2)cc1`: the T/C is, setting by setting: (dose: 0.15 mg/kg/injection, schedule: Q01DX009 (ip), vehicle: saline) 97 % of control; (dose: 0.31 mg/kg/injection, schedule: Q01DX009 (ip), vehicle: saline) 89 % of control and 102 % of control; (dose: 0.63 mg/kg/injection, schedule: Q01DX009 (ip), vehicle: saline) 102 % of control; (dose: 1.25 mg/kg/injection, schedule: Q01DX009 (ip), vehicle: saline) 102 % of control; (dose: 2.5 mg/kg/injection, schedule: Q01DX009 (ip), vehicle: saline) 103 % of control; (dose: 5.0 mg/kg/injection, schedule: Q01DX009 (ip), vehicle: saline) 89 % of control. Further, the T/C is, setting by setting: (dose: 10.0 mg/kg/injection, schedule: Q01DX009 (ip), vehicle: saline) 89 % of control; (dose: 20.0 mg/kg/injection, schedule: Q01DX009 (ip), vehicle: saline) 107 % of control; (dose: 40.0 mg/kg/injection, schedule: Q01DX009 (ip), vehicle: saline) 86 % of control.

For `CC(Br)C(=O)NC(Cc1ccccc1)C(=O)O` (stereo not drawn), the T/C is 94 % of control under setting [6] and 91 % of control under setting [7].

With `COC(=O)CCC(=O)N1CCOCC1`, the T/C reads like this: under setting [7], 95 % of control; (dose: 100.0 mg/kg/injection, schedule: Q04DX003 (ip), vehicle: saline with Tween-80) 100 % of control; under setting [8], 93 % of control; (dose: 200.0 mg/kg/injection, schedule: Q04DX003 (ip), vehicle: saline with Tween-80) 102 % of control; under setting [9], 97 % of control; (dose: 400.0 mg/kg/injection, schedule: Q04DX003 (ip), vehicle: saline with Tween-80) 102 % of control.

Take `CCCCCCOP(=O)(CCCCCC)OCCCCCC`: the T/C runs as follows: (dose: 12.5 mg/kg/injection, schedule: Q01DX009 (ip), vehicle: Klucel (hydroxypropylcellulose) (HPC)) 91 % of control; (dose: 50.0 mg/kg/injection, schedule: Q01DX009 (ip), vehicle: Klucel (hydroxypropylcellulose) (HPC)) 94 % of control; under setting [1], 97 % of control.

Regarding `CCN1Cc2ccc(O)cc2C1`, the T/C by setting is: under setting [10], 98 % of control; under setting [11], 100 % of control; under setting [12], 97 % of control.

For `O=C(Cl)c1ccccc1S(=O)(=O)N(CCOc1ccccc1)c1ccccc1`, the T/C runs as follows: under setting [1], 90 % of control; under setting [2], 96 % of control; under setting [3], 87 % of control.

With `O=[N+]([O-])c1ccc(/C=C2/c3cc(Cl)ccc3-c3c(Cl)cc(Cl)cc32)cc1`, the T/C reads like this: (dose: 6.25 mg/kg/injection, schedule: Q01DX009 (ip), vehicle: saline with Tween-80) 90 % of control; under setting [5], 88 % of control.

Consider `C[C@H](N)C(=O)N[C@@H]1[C@H]2C(=C(O)C[C@@H](O)[C@@H]2O)C(=O)O[C@@H]1C`, for which the T/C was 100 % of control (dose: 150.0 mg/kg/injection, schedule: Q01DX009 (ip), vehicle: saline); 102 % of control (dose: 300.0 mg/kg/injection, schedule: Q01DX009 (ip), vehicle: saline); 106 % of control (dose: 600.0 mg/kg/injection, schedule: Q01DX009 (ip), vehicle: saline); 116 % of control (dose: 1200.0 mg/kg/injection, schedule: Q01DX009 (ip), vehicle: saline).

Take `CC1(O)C=CC(=O)C=C1`: the T/C is 110 % of control (dose: 6.25 mg/kg/injection, schedule: Q01DX009 (ip), vehicle: water); 116 % of control (dose: 12.5 mg/kg/injection, schedule: Q01DX009 (ip), vehicle: water); 120 % of control (dose: 25.0 mg/kg/injection, schedule: Q01DX009 (ip), vehicle: water); 114 % of control (dose: 50.0 mg/kg/injection, schedule: Q01DX009 (ip), vehicle: water).

`O=NN(CCF)C(=O)NC1CCC(NC(=O)N(CCF)N=O)CC1` (stereo not drawn): the T/C by setting is: under setting [4], 166 % of control; (dose: 16.5 mg/kg/injection, schedule: Q01DX009 (ip), vehicle: saline with Tween-80) 232 % of control; (dose: 16.5 mg/kg/injection, schedule: Q01DX009 (ip), vehicle: saline) 181 % of control; under setting [5], 214 % of control and 276 % of control; under setting [10], 120 % of control; (dose: 37.5 mg/kg/injection, schedule: Q01DX009 (ip), vehicle: saline with Tween-80) 212 % of control.

Turning to `CCCCCCCCCCCCNC(=O)Nc1ccc(C)cc1C`, the T/C is 92 % of control under setting [1] and 96 % of control under setting [2].

Turning to `NC(=O)c1ncn2c(=O)n(CCCl)nnc12`, the T/C runs as follows: (dose: 6.25 mg/kg/injection, schedule: Q01DX009 (ip), vehicle: saline) 158 % of control; (dose: 12.5 mg/kg/injection, schedule: Q01DX009 (ip), vehicle: saline) 216 % of control; under setting [10], 207 % of control; under setting [11], 96 % of control.

As for `CC(=O)OCC(Br)C(Br)COC(C)=O` (stereo not drawn), the T/C by setting is: under setting [7], 100 % of control; under setting [8], 97 % of control; under setting [9], 97 % of control.

As to `NC(Cc1cc(I)c(O)c(I)c1)C(=O)O` (stereo not drawn), the T/C is 106 % of control under setting [10]; 112 % of control under setting [11]; 108 % of control (dose: 100.0 mg/kg/injection, schedule: Q01DX009 (ip), vehicle: carboxymethylcellulose (CMC)); 116 % of control under setting [12]; 115 % of control (dose: 200.0 mg/kg/injection, schedule: Q01DX009 (ip), vehicle: carboxymethylcellulose (CMC)); 110 % of control (dose: 200.0 mg/kg/injection, schedule: Q01DX009 (ip), vehicle: saline). For the same compound, the T/C (dose: 400.0 mg/kg/injection, schedule: Q01DX009 (ip), vehicle: saline) is 100 % of control.

Turning to `Cc1ccc(C)c(NC(=O)c2ccccc2Cl)c1`, the T/C reads like this: under setting [1], 118 % of control; under setting [2], 93 % of control; under setting [3], 109 % of control.

For the compound `Nc1cccc2c1C(=O)c1cccc(NC(=O)c3ccccc3)c1C2=O`, the T/C was 90 % of control under setting [1], 106 % of control under setting [2] and 90 % of control under setting [3].

As for `O=S(=O)(O)c1ccc2c(O)cc(S(=O)(=O)O)cc2c1`, the T/C is, setting by setting: (dose: 100.0 mg/kg/injection, schedule: Q04DX003 (ip), vehicle: saline) 100 % of control; (dose: 200.0 mg/kg/injection, schedule: Q04DX003 (ip), vehicle: saline) 105 % of control; (dose: 400.0 mg/kg/injection, schedule: Q04DX003 (ip), vehicle: saline) 108 % of control.

For the compound `C/C(=N\[N+](C)(C)C)c1ccc(Br)cc1`, the T/C reads like this: under setting [10], 88 % of control; under setting [11], 102 % of control; under setting [12], 94 % of control.
